According to patent publication US20230116972A1, “CD38 MODULATORS AND METHODS OF USE THEREOF” (Cytokinetics, Inc., priority 2021, published 2023):
pIC50: −log10 of the molar value.

Experiments:
[1] = target: T1, human CD38 (Homo sapiens, UniProt P28907); assay: human recombinant CD38 enzyme assay (hydrolysis of NAD+); format: biochemical; conditions: human recombinant CD38, 0.4 nM enzyme, 62.5 μM NAD+; read-out: hCD38 BioChem IC50
T1 sequence (P28907 1-300): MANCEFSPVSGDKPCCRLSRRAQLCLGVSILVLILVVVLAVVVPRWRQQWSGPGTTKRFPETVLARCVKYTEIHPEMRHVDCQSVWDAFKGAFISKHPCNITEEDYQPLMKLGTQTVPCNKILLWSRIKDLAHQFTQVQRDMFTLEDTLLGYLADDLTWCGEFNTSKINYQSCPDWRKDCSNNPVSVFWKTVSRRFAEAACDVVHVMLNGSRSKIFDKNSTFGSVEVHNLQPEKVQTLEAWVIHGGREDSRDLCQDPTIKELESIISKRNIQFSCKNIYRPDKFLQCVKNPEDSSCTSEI
Summary of the method: (§1)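 Residual NAD+ after 60 min of cell-free hydrolysis by recombinant mouse or human CD38 at ambient temperature, measured over a dose range. Detection used ADH conversion to NADH, then diaphorase-coupled resazurin-to-resorufin fluorescence (Ex/Em 540/590 nm).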

[2] = target: T2, endogenous CD38 in HL60 cells (Homo sapiens, UniProt P28907); assay: cellular CD38 assay in HL60 cells (cellular NAD levels); format: cell-based; conditions: all-trans retinoic acid, 24 hours, read-out: hCD38 HL60 ATRA NAD Cell Diaphorase IC50
T2 construct: endogenous in cells; host or cells: HL60 (leukemic cells, treated with all-trans retinoic acid)
T2 sequence (P28907 1-300): T1 sequence (P28907 1-300)
Summary of the method: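 Endogenous CD38 inhibition is inferred from NAD levels in HL60 cells after 24 h compound exposure at 20000 cells per well. A lytic cycling readout (0.2 U/mL diaphorase, 0.8 U/mL alcohol dehydrogenase, resazurin, FMN, ethanol, 0.2% Triton X-100, Tris/EDTA pH 8.4) ran 60 min at ambient temperature. Resorufin fluorescence was read at 540/590 nm.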

[3] = target: T3, mouse CD38 (Mus musculus, UniProt P56528); assay: mouse recombinant CD38 enzyme assay (hydrolysis of NAD+); format: biochemical; conditions: read-out: mCD38 BioChem IC50
T3 sequence (P56528 1-304): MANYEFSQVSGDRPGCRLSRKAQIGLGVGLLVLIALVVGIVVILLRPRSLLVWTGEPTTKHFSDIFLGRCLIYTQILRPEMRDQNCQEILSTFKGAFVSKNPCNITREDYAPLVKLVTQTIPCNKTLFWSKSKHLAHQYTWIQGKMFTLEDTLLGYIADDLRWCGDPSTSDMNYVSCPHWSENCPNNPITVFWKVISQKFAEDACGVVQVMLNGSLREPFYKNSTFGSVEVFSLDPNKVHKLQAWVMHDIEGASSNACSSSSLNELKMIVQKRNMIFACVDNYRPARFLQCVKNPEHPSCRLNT
Summary of the method: as §1

SMILES	pIC50 [1]	pIC50 [2]	pIC50 [3]
O=C(N[C@H]1C[C@H](c2ccccc2F)C1)c1nccc(-n2ccnc2)n1 [Compound 236, N-((1r,3r)-3-(2-fluorophenyl)cyclobutyl)-4-(1H-imidazol-1-yl)pyrimidine-2-carboxamide]	7.33	5.73	7.57
O=C(N[C@H]1C[C@H](c2cccc(F)c2)C1)c1nccc(-n2ccnc2)n1 [Compound 237, N-((1r,3r)-3-(3-fluorophenyl)cyclobutyl)-4-(1H-imidazol-1-yl)pyrimidine-2-carboxamide]	7.47	5.66	7.53
O=C(N[C@H]1C[C@H](c2ccc(F)cc2)C1)c1nccc(-n2ccnc2)n1 [Compound 238, N-((1r,3r)-3-(4-fluorophenyl)cyclobutyl)-4-(1H-imidazol-1-yl)pyrimidine-2-carboxamide]	7.36	5.62	7.39
O=C(N[C@H]1C[C@H](c2ccc(F)cc2F)C1)c1nccc(-n2ccnc2)n1 [Compound 239, N-((1r,3r)-3-(2,4-difluorophenyl)cyclobutyl)-4-(1H-imidazol-1-yl)pyrimidine-2-carboxamide]	7.21	5.50	7.47
Cn1cncc1-c1ccnc(C(=O)N[C@H]2C[C@H](c3ccccc3F)C2)n1 [Compound 240, N-((1r,3r)-3-(2-fluorophenyl)cyclobutyl)-4-(1-methyl-1H-imidazol-5-yl)pyrimidine-2-carboxamide]	7.55	5.69	7.88
Cn1cncc1-c1ccnc(C(=O)N[C@H]2C[C@H](c3cccc(F)c3)C2)n1 [Compound 241, N-((1r,3r)-3-(3-fluorophenyl)cyclobutyl)-4-(1-methyl-1H-imidazol-5-yl)pyrimidine-2-carboxamide]	7.78	5.69	7.84
Cn1cncc1-c1ccnc(C(=O)N[C@H]2C[C@H](c3ccc(F)cc3)C2)n1 [Compound 242, N-((1r,3r)-3-(4-fluorophenyl)cyclobutyl)-4-(1-methyl-1H-imidazol-5-yl)pyrimidine-2-carboxamide]	7.54	5.63	7.67
Cn1cncc1-c1ccnc(C(=O)N[C@H]2C[C@H](c3ccc(F)cc3F)C2)n1 [Compound 243, N-((1r,3r)-3-(2,4-difluorophenyl)cyclobutyl)-4-(1-methyl-1H-imidazol-5-yl)pyrimidine-2-carboxamide]	7.55	5.43	7.84
COCCOc1cc(C(=O)Nc2ccc(C(F)F)nc2)nc(-n2ccnc2)c1 [Compound 244, N-(6-(difluoromethyl)pyridin-3-yl)-6-(1H-imidazol-1-yl)-4-(2-methoxyethoxy)picolinamide]	8.72	6.30	9.00
COCCOc1cc(C(=O)Nc2ccc(C(F)(F)F)nc2)nc(-n2ccnc2)c1 [Compound 245, 6-(1H-imidazol-1-yl)-4-(2-methoxyethoxy)-N-(6-(trifluoromethyl)pyridin-3-yl)picolinamide]	8.55	6.13	9.00
Cn1cncc1-c1ccnc(C(=O)N[C@H]2CCN(c3ccccc3)C2)n1 [Compound 246, (S)-4-(1-methyl-1H-imidazol-5-yl)-N-(1-phenylpyrrolidin-3-yl)pyrimidine-2-carboxamide]	7.08	5.06	7.21
O=C(N[C@H]1CCN(c2ccccc2)C1)c1nccc(-n2ccnc2)n1 [Compound 247, (S)-4-(1H-imidazol-1-yl)-N-(1-phenylpyrrolidin-3-yl)pyrimidine-2-carboxamide]	6.63	4.84	6.86
CC(C)(O)c1ccc(NC(=O)c2ccnc(-n3ccnc3)n2)cn1 [Compound 248, N-(6-(2-hydroxypropan-2-yl)pyridin-3-yl)-2-(1H-imidazol-1-yl)pyrimidine-4-carboxamide]	7.97	6.06	7.86
CC(C)(O)[C@H]1CC[C@H](NC(=O)c2nccc(-n3ccnc3)n2)CC1 [Compound 251, N-((1r,4r)-4-(2-hydroxypropan-2-yl)cyclohexyl)-4-(1H-imidazol-1-yl)pyrimidine-2-carboxamide]	6.68	5.29	7.23
Cn1cncc1-c1ccnc(C(=O)N[C@H]2CC[C@](O)(c3ccccc3)CC2)n1 [Compound 252, N-((1s,4s)-4-hydroxy-4-phenylcyclohexyl)-4-(1-methyl-1H-imidazol-5-yl)pyrimidine-2-carboxamide]	6.59	5.31	6.74
Cn1cncc1-c1ccnc(C(=O)N[C@H]2CC[C@H](C(C)(C)O)CC2)n1 [Compound 254, N-((1r,4r)-4-(2-hydroxypropan-2-yl)cyclohexyl)-4-(1-methyl-1H-imidazol-5-yl)pyrimidine-2-carboxamide]	7.03	5.44	7.51
CCO[C@H]1CC[C@H](NC(=O)c2nccc(-c3cncn3C)n2)CC1 [Compound 255, N-((1r,4r)-4-ethoxycyclohexyl)-4-(1-methyl-1H-imidazol-5-yl)pyrimidine-2-carboxamide]	7.15	5.56	7.54
O=C(N[C@H]1CC[C@H](O)CC1)c1nccc(-n2ccnc2)n1 [Compound 257, N-((1r,4r)-4-hydroxycyclohexyl)-4-(1H-imidazol-1-yl)pyrimidine-2-carboxamide]	6.91	5.34	7.36
CCO[C@H]1CC[C@H](NC(=O)c2nccc(-n3ccnc3)n2)CC1 [Compound 258, N-((1r,4r)-4-ethoxycyclohexyl)-4-(1H-imidazol-1-yl)pyrimidine-2-carboxamide]	7.15	5.25	7.44
Cn1cncc1-c1ccnc(C(=O)N[C@H]2CC[C@H](CO)CC2)n1 [Compound 259, N-((1r,4r)-4-(hydroxymethyl)cyclohexyl)-4-(1-methyl-1H-imidazol-5-yl)pyrimidine-2-carboxamide]	7.34	5.64	7.81
O=C(N[C@H]1CC[C@](O)(c2ccccc2)CC1)c1nccc(-n2ccnc2)n1 [Compound 260, N-((1s,4s)-4-hydroxy-4-phenylcyclohexyl)-4-(1H-imidazol-1-yl)pyrimidine-2-carboxamide]	6.57	4.97	6.79
O=C(N[C@H]1CC[C@H](CO)CC1)c1nccc(-n2ccnc2)n1 [Compound 261, N-((1r,4r)-4-(hydroxymethyl)cyclohexyl)-4-(1H-imidazol-1-yl)pyrimidine-2-carboxamide]	7.06	5.51	7.41
O=C(NC1CCN(c2ccccc2)CC1)c1nccc(-n2ccnc2)n1 [Compound 263, 4-(1H-imidazol-1-yl)-N-(1-phenylpiperidin-4-yl)pyrimidine-2-carboxamide]	6.60	4.90	6.57
Cn1cncc1-c1ccnc(C(=O)N[C@H]2CC[C@H](NCC(F)(F)F)CC2)n1 [Compound 264, 4-(1-methyl-1H-imidazol-5-yl)-N-((1r,4r)-4-((2,2,2-trifluoroethyl)amino)cyclohexyl)pyrimidine-2-carboxamide]	7.39	5.68	7.82
O=C(N[C@H]1CC[C@H](NCC(F)(F)F)CC1)c1nccc(-n2ccnc2)n1 [Compound 265, 4-(1H-imidazol-1-yl)-N-((1r,4r)-4-((2,2,2-trifluoroethyl)amino)cyclohexyl) pyrimidine-2-carboxamide]	7.08	5.38	7.44
COCCOc1cc(C(=O)Nc2ccc(C(F)(F)F)nc2)nc(-c2cncn2C)n1 [Compound 267, 6-(2-methoxyethoxy)-2-(1-methyl-1H-imidazol-5-yl)-N-(6-(trifluoromethyl)pyridin-3-yl)pyrimidine-4-carboxamide]	8.60	6.39	9.52
O=C(N[C@H]1C[C@H](c2ccnc(C(F)(F)F)c2)C1)c1nccc(-n2ccnc2)n1 [Compound 268, 4-(1H-imidazol-1-yl)-N-((1r,3r)-3-(2-(trifluoromethyl)pyridin-4-yl)cyclobutyl)pyrimidine-2-carboxamide]	7.45	5.86	7.02
